The values that follow are results of earlier work, collected in patent US20070134244A1, “Combination treatment for pathologic ocular angiogenesis” (Alcon, Inc., priority 2005, published 2007).

This data set relates to xenotransplant models of colon cancer. To be noted: xenotransplant models of colon cancer in nude (athymic) mice; Presta et al. 1997.

For the substance bevacizumab, the metastatic disease progression entry is listed as “inhibition of metastatic disease progression” and the microvascular growth entry is recorded as “reduction of microvascular growth”.
